One may read the melting point as the temperature of the solid-liquid transition. `NS(=O)(=O)c1cc2[nH]c(Cc3ccccc3Cl)nc2cc1Cl` yielded a melting point of 223 to 226 °C.

`CCCC(=O)Nc1cnc2cccnc2c1O` had a melting point of more than 360 °C.

`CCOc1ccc2c(c1)n(C1CCOCC1)c(=O)n2Cc1ccc(C(=O)NC(C)(C)C)cc1OC` yielded a melting point of 209 °C.

`CC(C)(C)C(NC(=O)c1cccc(F)c1)Nc1c(Nc2cccnc2Cl)c(=O)c1=O` (stereo unspecified) had a melting point of 228 to 229 °C.

In turn, `COc1ccc2sc(C(=O)OCC(C)(C)C(O)C(C)(C)C)cc2c1` (stereo unspecified) registered a melting point of 121 to 122 °C.

Compound `CC(=O)OC1CSC(Sc2cccc(C#N)c2)C(OC(C)=O)C1OC(C)=O` (stereo unspecified) displayed a melting point of 133 °C.

The compound `Cn1cc(C2=C(c3c4n(c5ccccc35)CCC(CNC(=O)OC(C)(C)C)C4)C(=O)OC2=O)c2ccccc21` (stereo unspecified) returned a melting point of 124 to 126 °C.

In the case of `CCOC(=O)C(C)Oc1ccc(C)cc1` (stereo unspecified), the melting point was in the range of 78 to 82 °C.

`Cc1cccc(NC(=O)NC2N=C(C(C)C)c3cccc(C)c3N(CC(=O)N3CCCCCCC3)C2=O)c1` (stereo unspecified) yielded a melting point of 132 to 133 °C.

`NC(=O)c1ccc2c(c1-c1c(C(N)=O)ccc3c1OCO3)OCO2` had a melting point of 249 to 250 °C.

With `CCCCCCCC(=O)Nc1cccc(-c2cc(=O)cc(C(=O)O)o2)c1`, the melting point was in the range of 242 to 247 °C.

For the compound `CCOC(=O)C1CC(=O)c2nc(C)c(C)n2C1` (stereo unspecified), the melting point lay within 138 to 140 °C.

In the case of `CCN1C(=O)CCCc2cc(Nc3ncc(Cl)c(Nc4c(F)cccc4C(=O)NC)n3)c(OC)cc21`, the melting point is 254 to 256 °C.

In the case of `CCOCc1nc2c(N)nc3cc(OCCNC(=O)OC(C)(C)C)ccc3c2n1CC1COC(C)(C)O1` (stereo unspecified), the melting point lay in the range of 82 to 84 °C.

As to `COc1cc(OC)c(-c2nncn2CC(C)C)cc1C=CC(=O)c1ccc(S(N)(=O)=O)cc1`, the melting point is more than 240 °C.

For the compound `O=C(O)C1c2ccccc2COc2ccc(I)cc21` (stereo unspecified), the melting point is 191 to 192 °C.

`COc1ccc2c(c1)C(C1CCC1)=NCC2` displayed a melting point of 44 to 46 °C.

Turning to `O=C(O)c1cn(C2CC2)c2cc(F)c(F)c(NCc3ccccc3)c2c1=O`, the melting point was in the range of 214 to 216 °C.

Compound `COc1cc(C=CCN2CCc3nc(N)sc3CC2)cc(OC)c1` yielded a melting point of 114 to 119 °C.

As for `O=C(O)CCSC(=S)NCc1ccc(Cl)cc1`, the melting point was in the range of 104 to 105 °C.

`O=C1CN2CCC1CC2`: the melting point was found to be 58 °C.

As to `CC(C)(C)c1cc(NN=Cc2ccc(C(=O)O)cc2)cc(C(C)(C)C)c1`, the melting point lay within 208 to 213 °C.

Compound `CC1c2ccccc2-c2[nH]c3ccccc3c21` (stereo unspecified) gave a melting point of 153 to 155 °C.

Turning to `COc1ccc(S(=O)(=O)N2C(=O)C(OC(=O)Oc3ccccc3)(c3ccccc3C(F)(F)F)c3cc(Cl)ccc32)c(OC)c1` (stereo unspecified), the melting point is 191 °C.

`CC(=O)c1ccc(CC(=O)OC(C)(C)C)cc1`: the melting point was 50 to 52 °C.

On to `O=C(O)C(=O)c1cnsn1`, for which the melting point is 130 to 133 °C.

On to `CCOC(C)OC(CCOc1ccc([N+](=O)[O-])cc1)C(F)(F)F` (stereo unspecified), for which the melting point turned out to be 81 °C.

For the compound `O=c1ccn(-c2cccc(C(F)(F)F)c2)nc1-c1nncn1-c1ccccc1`, the melting point was 103 to 104 °C.

With `CC(C)(C)C(=O)C(Br)c1ccccc1` (stereo unspecified), the melting point fell in the range of 38 to 42 °C.

Compound `Cc1c(NC(=O)N2CCC(c3ccc(Cl)cc3)CC2)ccc2cc(CN3CCCC3)cnc12` yielded a melting point of 203 to 205 °C.

As for `Cc1cc(=O)c(C(=O)Nc2ccccc2)c(C)o1`, the melting point was in the range of 148 to 149 °C.

In turn, `CCCCOCCOc1ccc(-c2ccc3c(c2)C=C(C(=O)OC)CCN3c2ccccc2)cc1` returned a melting point of 80 to 82 °C.

In turn, `O=c1[nH]c(Nc2ccccc2)nc2c1ncn2CCCCO` showed a melting point of more than 350 °C.

The compound `CCN(c1cc2c3c(c1)CCCC3(C)CCC2)c1ncc(C(=O)O)cn1` displayed a melting point of 257 to 258 °C.

Regarding `CCC1CC(=O)N(CCc2ccc(N)cc2)N=C1c1ccc(OC)c(OC)c1` (stereo unspecified), the melting point was determined as 112 °C.

The compound `COc1ccc2c(c1)C1(CCCC1)C(O)(CC#N)CC2` (stereo unspecified) displayed a melting point of 126 to 127 °C.

With `COc1ccc2c(c1)c(C)c(CCCO)n2Cc1ccc(Cl)cc1`, the melting point amounted to 118 °C.

For the compound `CCOC(=O)CC[C@H](NC(=O)c1ccc(N2CCN(c3c(N)nc(N)nc3CC)CC2)cc1)C(=O)OCC`, the melting point lay within 226 to 228 °C.

For `Cc1c(Br)sc(N2C(=O)c3ccccc3C2=O)c1C(=O)c1ccc(Cl)cc1`, the melting point lay within 194 to 195 °C.

As to `O=C(NS(=O)(=O)N1CCCCC1)C1=NN(c2ccc(Cl)cc2)C(c2ccccc2)C1` (stereo unspecified), the melting point lay within 176 to 179 °C.

On to `O=S(=O)(Nc1ccc(Oc2cccc3cccnc23)c(Cl)c1)c1cccc(C(F)(F)F)c1`, for which the melting point was more than 245 °C.

Consider `Cc1ccc(C)c2cc3ccccc3cc12`, for which the melting point is 70 to 72 °C.

For `CC(=O)Nc1c(-c2ccccc2)c(=O)[nH]c2cc(Cl)ccc12`, the melting point fell in the range of 275 to 277 °C.

In turn, `Cc1cc(C)nc(N(N=O)c2ccccc2)n1` displayed a melting point of 117 to 121 °C.

`c1ccc(-c2cc(-c3csc(Nc4ccccn4)n3)on2)cc1` gave a melting point of 211 to 215 °C.

Turning to `CC(C)(C)OC(=O)C1(Cl)OC1c1ccc([N+](=O)[O-])cc1` (stereo unspecified), the melting point is 60 °C.

Take `CC(=O)SC[C@H](NC(=O)C(C)C)C(=O)NCCSC(=O)C(C)C`: the melting point lay within 100 to 102 °C.

Compound `CCCCCCCCC1OC(=O)c2cc(NC(C)=O)ccc21` (stereo unspecified) had a melting point of 133 to 134 °C.

In turn, `COc1cc(C(C)O)c([N+](=O)[O-])cc1OC` (stereo unspecified) came in with a melting point of 107 to 108 °C.

`COc1cc(C)c2c(c1OC)CCC1C(=O)NC(=O)C21` (stereo unspecified) came in with a melting point of 179 to 181 °C.

The compound `Cc1ccc(S(=O)(=O)OCC2Cc3cccc(-c4cc(Cl)cc(Cl)c4)c3O2)cc1` (stereo unspecified) registered a melting point of 113 to 115 °C.

On to `COC(=O)c1ccc2c(c1)Sc1ccc(C(C)N(O)C(N)=O)cc1CC2` (stereo unspecified), for which the melting point fell in the range of 167 to 169 °C.

`O=c1nc(-c2cccc(Oc3ccccc3)n2)sc2ccccc12` yielded a melting point of 161 °C.

`CCN1CCc2ccc(C(=O)CCC(=O)N3CCC(c4ccc(Cl)cc4)CC3)cc2C1` showed a melting point of 115 to 116 °C.

For `O=C(C1CCN(c2ccncn2)C1)N1CCNCC1` (stereo unspecified), the melting point was 129 to 131 °C.

In the case of `CC(=O)c1ccc2c(c1)C(c1ccccn1)CC(C)(C)O2` (stereo unspecified), the melting point fell in the range of 102 to 105 °C.

In turn, `CC(C)(C)OC(=O)N1CCN(Cc2ccc3c(c2)-c2[nH]nc(-c4ccsc4)c2C3)CC1` showed a melting point of 218 to 220 °C.

`N=C(N)N(CCCCCCCCCCC(=O)O)C(=O)c1nc(Cl)c(N)nc1N` displayed a melting point of 181 to 191 °C.

As to `COc1ccc2cnc(Nc3ccc(F)c(C)c3)nc2c1C1CCCC1`, the melting point lay within 208 to 209 °C.

Compound `CN(CCOc1ccc(CC2SC(=O)NC2=O)cc1)C(=O)Nc1ccccc1` (stereo unspecified) returned a melting point of 88 to 90 °C.

With `COC(=O)c1ccc2c(c1)c(=O)cc(-c1ccccc1)n2C`, the melting point was 174 to 176 °C.

`CC(C)(CC(=O)O)CC(=O)N[C@H](Cc1ccc(-c2ccccc2)cc1)C(=O)NCCCCNc1ncccn1` gave a melting point of 77 to 95 °C.

The compound `O=C(O)CCCc1cc2nc(Cl)ccc2n1S(=O)(=O)c1ccc(-c2cccnc2)cc1` yielded a melting point of 141 °C.

Compound `CCC(C)(Cc1c[nH]c2ccccc12)[N+](=O)[O-]` (stereo unspecified) had a melting point of 79.5 to 80 °C.

`Nc1ccc(C(=O)c2c(F)cccc2F)c(N)n1` displayed a melting point of 179 to 181 °C.

On to `CCCCCNC(=O)CCCO`, for which the melting point fell in the range of 41 to 43 °C.

Consider `CN(C)C(=O)Sc1cc(SC(=O)N(C)C)cc(C(N)=O)c1`, for which the melting point lay within 264 to 265 °C.

The compound `O=C(O)c1cc(-n2c(-c3cccs3)cc3c2CCCC3)ccc1O` showed a melting point of 211 to 213 °C.

Compound `CCOCCn1cc2c(C3C(=O)Nc4ccc(Br)cc43)nc(Cl)nc2n1` (stereo unspecified) gave a melting point of 260 to 263 °C.

In turn, `CCOCc1nc2c(N)nc(C)c(C)c2n1CCNC(=O)NC1CCCCC1` yielded a melting point of 188 to 190 °C.

On to `CC(C)NCC(O)COc1cccc2nsnc12` (stereo unspecified), for which the melting point is 100 to 102 °C.

Consider `CC(C)(C)c1nc(C=Cc2cccnc2)ncc1O`, for which the melting point was 150 to 151 °C.

Take `CC(=O)Nc1cc(C(C)(C)CC(C)(C)C)ccc1O`: the melting point is 176 to 177 °C.

`O=Cc1c[nH]c(Cc2ccccc2)n1` showed a melting point of 130 to 136 °C.

`CCOC(=O)c1cn(CC)c2cc(-c3csc(CN(C)C(C)=O)n3)c(F)cc2c1=O` yielded a melting point of 173 to 175 °C.

`OC(CCc1cccnc1)COc1ccc(OCc2ccccc2)cc1` (stereo unspecified) showed a melting point of 79 to 82 °C.

In turn, `CSC(Oc1cc(Cl)c2ncc(Br)cc2c1)C(=O)NC(C)(C)C` (stereo unspecified) showed a melting point of 160 to 161 °C.

Turning to `Cc1c(C)c2c(c(C)c1N)CC(C)(CN1CCN(CC(c3ccccc3)c3ccccc3)CC1)O2` (stereo unspecified), the melting point lay within 130 to 132 °C.

The compound `O=c1c2c(O)cc(O)cc2ncn1-c1ccc(O)cc1` displayed a melting point of 240 to 245 °C.

`CCOC(=O)C=Cc1cc([N+](=O)[O-])ccc1Cl` had a melting point of 138 to 140 °C.

`COc1ccc(-c2c(NC(C)C(C)(C)C)c(=O)c2=O)cc1` (stereo unspecified) came in with a melting point of 179 to 181 °C.

As for `CC(C)(C)OC(=O)Cn1c(=O)c(-c2c(Cl)cccc2Cl)cc2cnc(N)nc21`, the melting point is 171 to 173 °C.

Regarding `COc1ccc(-c2c(C)cc3c(O)cc(C)nn23)c(Cl)c1`, the melting point lay within 196 to 198 °C.

Consider `COc1ccccc1-n1c(-c2cc(-c3ccccc3)c(N3CCOCC3)s2)nc2ccccc2c1=O`, for which the melting point is 152 to 154 °C.

With `CCc1nc(N)nc(N)c1CCCCc1cc(Cl)c(Cl)cc1Cl`, the melting point was 158 to 163 °C.

The compound `COCOc1cc(OC)ccc1C=O` returned a melting point of 55 to 56 °C.

In the case of `CSCc1cc(O)nc(CSC)n1`, the melting point lay in the range of 101 to 102 °C.

Compound `CC(C)(Cc1c[nH]c2ccccc12)NCC(O)COc1ccccc1Cl` (stereo unspecified) had a melting point of 150 to 154 °C.

Take `CC(C)CCCC(C)CCCC(C)CCCC(C)CCP(=O)(O)O` (stereo unspecified): the melting point was in the range of 69 to 72 °C.

In the case of `O=C(CCC(NS(=O)(=O)c1ccc2oc3ccccc3c2c1)C(=O)O)NCCc1ccccc1` (stereo unspecified), the melting point was 197 to 201 °C.

`c1ccc(N2C(=NCCCn3ccnc3)c3cccc4cccc2c34)cc1` yielded a melting point of 103 to 105 °C.
